Among the data in ChEMBL document CHEMBL4138191, “Organic arsenicals target thioredoxin reductase followed by oxidative stress and mitochondrial dysfunction resulting in apoptosis” (Eur J Med Chem, 2018) are Activity values, retold here.

The test system of experiment [1] is HL-60. The experiment in a line: Induction of mitochondrial membrane potential loss in human HL60 cells after 24 hrs by JC-1 staining-based flow cytometry (reference value: 28.6%). It is filed as functional. In general terms: Flow cytometry measures light scatter and fluorescence of single cells or particles in a stream.
Experiment [2] relates to HL-60. The experiment in a line: Induction of mitochondrial membrane potential loss in human HL60 cells after 24 hrs by JC-1 staining-based flow cytometry (reference value: 24.3%). Format: functional.

Regarding `N#CC(C#N)=NNc1cccc(Cl)c1` [CARBONYL CYANIDE M-CHLOROPHENYLHYDRAZONE], the figures for the Activity in the experiment on HL-60 [1] and in the experiment with HL-60 [2] were 62.4% and 85.8%, respectively.
